Data taken from the supplement of paper PMC10307832.

How the values were obtained:
Assay in all cases: relative viability (nuclei count vs DMSO), 5 days (fraction); higher = more cells survive
Irinotecan + Phenformin = compound: CCc1c2c(nc3ccc(OC(=O)N4CCC(N5CCCCC5)CC4)cc13)-c1cc3c(c(=O)n1C2)COC(=O)[C@]3(O)CC [Irinotecan] + N=C(N)NC(=N)NCCc1ccccc1 [Phenformin] (partner 250 µM)
Outline: (§1)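 The day after seeding in 1536-well plates, lung cancer cell lines were treated by pin tool with a single drug, or with a fixed anchor-drug dose together with five library-drug doses (not always all listed) in √10 steps. After 5 days, a combined fix-and-stain solution (final 0.05% Triton X-100, 1% formaldehyde, 1 ug/ml Hoechst) was added. Nuclei counted on 4× images gave relative viability as treated counts over vehicle counts, reported as the median of duplicate plates.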

Irinotecan + Trametinib = compound: CCc1c2c(nc3ccc(OC(=O)N4CCC(N5CCCCC5)CC4)cc13)-c1cc3c(c(=O)n1C2)COC(=O)[C@]3(O)CC [Irinotecan] + CC(=O)Nc1cccc(-n2c(=O)n(C3CC3)c(=O)c3c(Nc4ccc(I)cc4F)n(C)c(=O)c(C)c32)c1 [Trametinib] (partner 0.02 µM)
Outline: as §1

RU-SKI 43 + OSI-027 = compound: CC[C@@H](C)CNCC(=O)N1CCC2=C([C@@H]1COC3=CC=CC(=C3)C)C=CS2 [RU-SKI 43] + COc1cccc2cc(-c3nc([C@H]4CC[C@H](C(=O)O)CC4)n4ncnc(N)c34)[nH]c12 [OSI-027] (partner 0.5 µM)
Outline: as §1

RU-SKI 43 + Dasatinib = compound: CC[C@@H](C)CNCC(=O)N1CCC2=C([C@@H]1COC3=CC=CC(=C3)C)C=CS2 [RU-SKI 43] + Cc1nc(Nc2ncc(C(=O)Nc3c(C)cccc3Cl)s2)cc(N2CCN(CCO)CC2)n1 [Dasatinib] (partner 0.075 µM)
Outline: as §1

Cell Line | relative viability (Irinotecan + Phenformin; first compound 0.6325 µM) | relative viability (Irinotecan + Phenformin; first compound 2 µM) | relative viability (Irinotecan + Phenformin; first compound 6.325 µM) | relative viability (Irinotecan + Phenformin; first compound 20 µM) | relative viability (Irinotecan + Trametinib; first compound 0.6325 µM) | relative viability (Irinotecan + Trametinib; first compound 2 µM) | relative viability (Irinotecan + Trametinib; first compound 6.325 µM) | relative viability (Irinotecan + Trametinib; first compound 20 µM) | relative viability (RU-SKI 43 + OSI-027; first compound 0.1 µM) | relative viability (RU-SKI 43 + OSI-027; first compound 0.3162 µM) | relative viability (RU-SKI 43 + OSI-027; first compound 1 µM) | relative viability (RU-SKI 43 + OSI-027; first compound 3.162 µM) | relative viability (RU-SKI 43 + OSI-027; first compound 10 µM) | relative viability (RU-SKI 43 + Dasatinib; first compound 0.1 µM) | relative viability (RU-SKI 43 + Dasatinib; first compound 0.3162 µM) | relative viability (RU-SKI 43 + Dasatinib; first compound 1 µM) | relative viability (RU-SKI 43 + Dasatinib; first compound 3.162 µM) | relative viability (RU-SKI 43 + Dasatinib; first compound 10 µM)
NCI-H1975 | 0.407 | 0.448 | 0.296 | 0.194 | 0.224 | 0.341 | 0.292 | 0.224 | 0.749 | 0.829 | 1.02 | 0.779 | 0.604 | 0.357 | 0.461 | 0.441 | 0.356 | 0.401
NCI-H1437 | 0.296 | 0.306 | 0.163 | 0.144 | 0.477 | 0.524 | 0.239 | 0.157 | 0.986 | 0.855 | 0.865 | 0.943 | 0.862 | 0.541 | 0.452 | 0.472 | 0.452 | 0.377
A-427 |  | 0.21 | 0.173 | 0.184 | 0.719 | 0.657 | 0.365 | 0.175 | 0.471 | 0.345 | 0.546 | 0.507 | 0.43 | 0.823 | 0.656 | 0.693 | 0.718 | 0.643
NCI-H2405 |  | 0.392 | 0.309 | 0.279 |  | 0.734 | 0.358 | 0.179 | 0.618 | 0.56 | 0.615 | 0.684 | 0.569 | 0.213 | 0.198 | 0.218 | 0.209 | 0.194
SK-MES-1 | 0.582 | 0.51 | 0.264 | 0.191 | 0.528 | 0.557 | 0.311 | 0.173 | 0.491 | 0.65 | 0.737 | 0.791 | 0.569 | 0.336 | 0.358 | 0.357 | 0.342 | 0.388
LC-2-ad | 0.444 | 0.529 | 0.324 | 0.197 | 0.657 | 0.365 | 0.275 | 0.253 | 0.733 | 0.821 | 1.04 | 0.979 | 0.789 | 0.587 | 0.634 | 0.77 | 0.605 | 0.552
NCI-H1944 | 0.191 | 0.187 | 0.132 | 0.132 | 0.291 | 0.204 | 0.177 | 0.178 | 0.428 | 0.397 | 0.503 | 0.445 | 0.404 | 0.209 | 0.223 | 0.213 | 0.211 | 0.2
NCI-H322M | 0.745 | 0.758 | 0.515 | 0.265 | 0.508 | 0.616 | 0.481 | 0.304 | 0.548 | 0.511 | 0.581 | 0.576 | 0.575 | 0.256 | 0.238 | 0.255 | 0.249 | 0.259
HCC-827 | 0.345 | 0.349 | 0.159 | 0.209 | 0.512 | 0.383 | 0.202 | 0.203 | 0.73 | 0.94 | 0.889 | 0.783 | 0.736 | 0.249 | 0.267 | 0.319 | 0.298 | 0.331
